24 molecules from US20260258032A1, “TYROSINE KINASE 2 INHIBITORS AND USES THEREOF” (BIOGEN MA INC., priority 2022, published 2026) can be followed below.

As usually defined, the IC50 is the midpoint of a concentration-inhibition curve. A higher IC50 goes with lower potency.

One test addresses T1, JH2 domain of human Tyk2 (Homo sapiens, UniProt P29597).
T1 construct: 10×His-tagged TYK2 JH2 domain (amino acid 575-876)
Description: JH2 biochemical assay (TR-FRET probe displacement). Format: binding. The settings on record: JH2 biochemical assay. A digest of the protocol: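 10×His-tagged human TYK2 JH2 (aa 575-876, 2 nM) incubated 60 min with 2 nM fluorescent probe, 0.1 nM Tb anti-His antibody and compound (10-point 3-fold series from […] top). TR-FRET 520/495 nm ratio, falling with probe displacement, normalized and fitted to a 4-parameter logistic for IC50.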
A general note: TR-FRET usually uses a lanthanide donor and a delayed reading to cut background.

Test [1] has as its system Tyk2 kinase activity on STAT4. Description: pSTAT4 cell assay (MSD, NK92 cells). Format: cell-based. The settings on record: compounds 1 hr, stimulated 15 minutes. Here is the method:
The inhibitory potency of compounds of the disclosure against the Tyk2 kinase activity on STAT4 was evaluated using an MSD-platform plate-based assay format. NK92 cells natively expressing STAT4 and Tyk2 were serum-starved to reduce background phosphorylation levels, then cells were treated compounds for 1 hr with a 10-point four-fold dilution series starting at 10 μM. Cells were then stimulated with 30 ng/mL IL2 for 15 minutes. Cells were lysed and […] levels were quantitated using an MSD plate-based assay with anti-STAT4 antibodies. The data were normalized and the percent activity versus log concentration of compound were fitted with a 4-parameter logistic model to generate to generate IC50 curves.

T1 sequence (P29597 575-876): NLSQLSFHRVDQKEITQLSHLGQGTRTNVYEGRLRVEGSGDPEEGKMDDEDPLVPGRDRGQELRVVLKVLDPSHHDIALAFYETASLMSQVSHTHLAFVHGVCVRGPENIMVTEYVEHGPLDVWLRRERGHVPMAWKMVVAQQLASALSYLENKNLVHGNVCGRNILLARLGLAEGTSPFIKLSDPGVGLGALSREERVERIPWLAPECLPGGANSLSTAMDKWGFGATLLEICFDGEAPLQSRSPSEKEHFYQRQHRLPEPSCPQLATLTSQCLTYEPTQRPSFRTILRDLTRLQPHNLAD

Regarding `COC1CC(c2cc(N3CC4(CC4)c4cnc(NC(C)=O)cc43)nc(C(C)(F)F)n2)C1` (stereo not drawn) [Example 23, N-(1′-(2-(1,1-difluoroethyl)-6-(3-methoxycyclobutyl)pyrimidin-4-yl)-1′,2′-dihydrospiro[cyclopropane-1,3′-pyrrolo[3,2-c]pyridin]-6′-yl)acetamid], the IC50 on JH2 domain of human Tyk2 was at most 10 nM; in test [1], 10 to 100 nM.

Regarding `CC(=O)Nc1cc2c(cn1)C1(CC1)CN2c1cc(C2CCC2)nc(C(C)(F)F)n1` [Example 24, N-(1′-(6-cyclobutyl-2-(1,1-difluoroethyl)pyrimidin-4-yl)-1′,2′-dihydrospiro[cyclopropane-1,3'-pyrrolo[3,2-c]pyridin]-6'-yl)acetamide], the concentration for half-maximal inhibition (IC50) at JH2 domain of human Tyk2 was at most 10 nM; in test [1], 10 to 100 nM.

For `CC(=O)Nc1cc2c(cn1)C1(CC1)CN2c1cc(C2CCCO2)nc(C(C)(F)F)n1` (stereo not drawn) [Example 26, N-(1′-(2-(1,1-difluoroethyl)-6-(tetrahydrofuran-2-y1)pyrimidin-4-yl)-1′,2′-dihydrospiro[cyclopropane-1,3′-pyrrolo[3,2-c]pyridin]-6′-yl)acetamide], the IC50 at JH2 domain of human Tyk2 was at most 10 nM; in test [1] it was 100 to 1000 nM.

As for `CSc1nc(C)cc(N2CC3(CC3)c3cnc(NC(C)=O)cc32)n1` [Example 29, N-(1′-(6-methyl-2-(methylthio)pyrimidin-4-yl)-1′,2′-dihydrospiro[cyclopropane-1,3′-pyrrolo[3,2-c]pyridin]-6′-yl)acetamide], the IC50 was at most 10 nM on JH2 domain of human Tyk2 and 100 to 1000 nM in test [1].

Take `COc1cc(N2CCc3cnc(NC(C)=O)cc32)nc(C(C)(F)F)n1` [Example 34, N-(1-(2-(1,1-difluoroethyl)-6-methoxypyrimidin-4-yl)-2,3-dihydro-1H-pyrrolo[3,2-c]pyridin-6-yl)acetamide]: the IC50 was 10 to 100 nM on JH2 domain of human Tyk2 and at least 1000 nM in test [1].

With `COCCN(C)c1cc(N2CC3(CC3)c3cnc(NC(C)=O)cc32)nc(C(C)(F)F)n1` [Example 50, N-(1′-(2-(1,1-difluoroethyl)-6-((2-methoxyethyl)(methyl)amino)pyrimidin-4-yl)-1′,2′-dihydrospiro[cyclopropane-1,3′-pyrrolo[3,2-c]pyridin]-6′-yl)acetamide], the IC50 was at most 10 nM at JH2 domain of human Tyk2 and 100 to 1000 nM in test [1].

As for `CC(=O)Nc1cc2c(cn1)C1(CC1)CN2c1cc(N2CCC2)nc(C(C)(F)F)n1` [Example 51, N-(1′-(6-(azetidin-1-yl)-2-(1,1-difluoroethyl)pyrimidin-4-yl)-1′,2′-dihydrospiro[cyclopropane-1,3′-pyrrolo[3,2-c]pyridin]-6′-yl)acetamide], the figures for the IC50 (at JH2 domain of human Tyk2; in test [1]) were at most 10 nM and 100 to 1000 nM, respectively.

In the case of `CC(=O)Nc1cc2c(cn1)C1(CC1)CN2c1cc(N2CCOCC2)nc(C(C)(F)F)n1` [Example 52, N-(1′-(2-(1,1-difluoroethyl)-6-morpholinopyrimidin-4-y1)-1′,2′-dihydrospiro[cyclopropane-1,3′-pyrrolo[3,2-c]pyridin]-6′-yl)acetamide], the IC50 on JH2 domain of human Tyk2 was at most 10 nM; in test [1] it was 100 to 1000 nM.

Consider `CC(=O)Nc1cc2c(cn1)C1(CC1)CN2c1cc(C(C)C)nc(C(C)(F)F)n1` [Example 53, N-(1′-(2-(1,1-difluoroethyl)-6-isopropylpyrimidin-4-yl)-1′,2′-dihydrospiro[cyclopropane-1,3′-pyrrolo[3,2-c]pyridin]-6′-yl)acetamide], for which the IC50 was at most 10 nM at JH2 domain of human Tyk2 and 10 to 100 nM in test [1].

On to `CC(=O)Nc1cc2c(cn1)C1(CC1)CN2c1cc(C)nc(C2CC2)n1` [Example 54, N-(1′-(2-cyclopropyl-6-methylpyrimidin-4-yl)-1′,2′-dihydrospiro[cyclopropane-1,3′-pyrrolo[3,2-c]pyridin]-6′-yl)acetamide], for which the IC50 at JH2 domain of human Tyk2 is at most 10 nM; in test [1], 100 to 1000 nM.

Turning to `CC(=O)Nc1cc2c(cn1)C1(CC1)CN2c1cc(C)nc(C(C)(C)C)n1` [Example 55, N-(1′-(2-(tert-butyl)-6-methylpyrimidin-4-yl)-1′,2′-dihydrospiro[cyclopropane-1,3′-pyrrolo[3,2-c]pyridin]-6′-yl)acetamide], the IC50 was at most 10 nM at JH2 domain of human Tyk2 and 100 to 1000 nM in test [1].

For the molecule `CCCCc1nc(C)cc(N2CC3(CC3)c3cnc(NC(C)=O)cc32)n1` [Example 58, N-(1′-(2-butyl-6-methylpyrimidin-4-yl)-1′,2′-dihydrospiro[cyclopropane-1,3′-pyrrolo[3,2-c]pyridin]-6′-yl)acetamide], the IC50 at JH2 domain of human Tyk2 was 10 to 100 nM; in test [1] it was at least 1000 nM.

Turning to `CCOCc1nc(C)cc(N2CC3(CC3)c3cnc(NC(C)=O)cc32)n1` [Example 59, N-(1′-(2-(ethoxymethyl)-6-methylpyrimidin-4-yl)-1′,2′-dihydrospiro[cyclopropane-1,3′-pyrrolo[3,2-c]pyridin]-6′-yl)acetamide], the figures for the IC50 (on JH2 domain of human Tyk2; in test [1]) were 100 to 1000 nM and at least 1000 nM, respectively.

With `CC(=O)Nc1cc2c(cn1)C1(CC1)CN2c1cc(C)nc(C(F)(F)F)n1` [Example 61, N-(1′-(6-methyl-2-(trifluoromethyl)pyrimidin-4-yl)-1′,2′-dihydrospiro[cyclopropane-1,3′-pyrrolo[3,2-c]pyridin]-6′-yl)acetamide], the figures for the IC50 (on JH2 domain of human Tyk2; in test [1]) were 10 to 100 nM and at least 1000 nM, respectively.

For `CC(=O)Nc1cc2c(cn1)C1(CC1)CN2c1cc(C)nc(CC2CC2)n1` [Example 62, N-(1′-(2-(cyclopropylmethyl)-6-methylpyrimidin-4-yl)-1′,2′-dihydrospiro[cyclopropane-1,3′-pyrrolo[3,2-c]pyridin]-6′-yl)acetamide], the IC50 on JH2 domain of human Tyk2 is at most 10 nM; in test [1], 100 to 1000 nM.

Turning to `CC(=O)Nc1cc2c(cn1)C1(CC1)CN2c1cc(C)nc(C(F)F)n1` [Example 63, N-(1′-(2-(difluoromethyl)-6-methylpyrimidin-4-yl)-1′,2′-dihydrospiro[cyclopropane-1,3′-pyrrolo[3,2-c]pyridin]-6′-yl)acetamide], the IC50 at JH2 domain of human Tyk2 was 10 to 100 nM; in test [1], at least 1000 nM.

Regarding `CCc1nc(C)cc(N2CC3(CC3)c3cnc(NC(C)=O)cc32)n1` [Example 64, N-(1′-(2-ethyl-6-methylpyrimidin-4-yl)-1′,2′-dihydrospiro[cyclopropane-1,3′-pyrrolo[3,2-c]pyridin]-6′-yl)acetamide], the half-maximal inhibitory concentration (IC50) at JH2 domain of human Tyk2 is 10 to 100 nM; in test [1], at least 1000 nM.

For the molecule `CCCc1nc(C)cc(N2CC3(CC3)c3cnc(NC(C)=O)cc32)n1` [Example 65, N-(1′-(6-methyl-2-propylpyrimidin-4-yl)-1′,2′-dihydrospiro[cyclopropane-1,3′-pyrrolo[3,2-c]pyridin]-6′-yl)acetamide], the IC50 on JH2 domain of human Tyk2 was in the range of 10 to 100 nM; in test [1], 100 to 1000 nM.

Regarding `CC(=O)Nc1cc2c(cn1)C1(CC1)CN2c1cc(C)nc(C(C)C)n1` [Example 66, N-(1′-(2-isopropyl-6-methylpyrimidin-4-yl)-1′,2′-dihydrospiro[cyclopropane-1,3′-pyrrolo[3,2-c]pyridin]-6′-yl)acetamide], the half-maximal inhibitory concentration (IC50) was at most 10 nM on JH2 domain of human Tyk2 and 100 to 1000 nM in test [1].

In the case of `CC(=O)Nc1cc2c(cn1)C1(CC1)CN2c1nc(C)nc(C)c1F` [Example 67, N-(1′-(5-fluoro-2,6-dimethylpyrimidin-4-yl)-1′,2′-dihydrospiro[cyclopropane-1,3′-pyrrolo[3,2-c]pyridin]-6′-yl)acetamide], the IC50 at JH2 domain of human Tyk2 is 100 to 1000 nM; in test [1], at least 1000 nM.

For the molecule `CC(=O)Nc1cc2c(cn1)C1(CC1)CN2c1cc(C)nc(C2(C)CC2)n1` [Example 69, N-(1′-(6-methyl-2-(1-methylcyclopropyl)pyrimidin-4-yl)-1′,2′-dihydrospiro[cyclopropane-1,3′-pyrrolo[3,2-c]pyridin]-6′-yl)acetamide], the IC50 at JH2 domain of human Tyk2 is at most 10 nM; in test [1] it was 100 to 1000 nM.

In the case of `CC(=O)Nc1cc2c(cn1)C1(CC1)CN2c1cc(C)nc(C2CCCOC2)n1` (stereo not drawn) [Example 70, N-(1′-(6-methyl-2-(tetrahydro-2H-pyran-3-yl)pyrimidin-4-yl)-1′,2′-dihydrospiro[cyclopropane-1,3′-pyrrolo[3,2-c]pyridin]-6′-yl)acetamide], the IC50 is at most 10 nM at JH2 domain of human Tyk2 and 100 to 1000 nM in test [1].

Consider `COCCCc1nc(C)cc(N2CC3(CC3)c3cnc(NC(C)=O)cc32)n1` [Example 71, N-(1′-(2-(3-methoxypropyl)-6-methylpyrimidin-4-yl)-1′,2′-dihydrospiro[cyclopropane-1,3′-pyrrolo[3,2-c]pyridin]-6′-yl)acetamide], for which the IC50 is 10 to 100 nM on JH2 domain of human Tyk2 and at least 1000 nM in test [1].

For the molecule `CC(=O)Nc1cc2c(cn1)C1(CC1)CN2c1cc([C@H]2C[C@@H](C#N)C2)nc(C(C)(F)F)n1` [Example 74, N-(1′-(6-((1s,3s)-3-cyanocyclobutyl)-2-(1,1-difluoroethyl)pyrimidin-4-yl)-1′,2′-dihydrospiro[cyclopropane-1,3′-pyrrolo[3,2-c]pyridin]-6′-yl)acetamide or N-(1′-(6-((1r,3r)-3-cyanocyclobutyl)-2-(1,1-difluoroethyl)pyrimidin-4-yl)-1′,2′-dihydrospiro[cyclopropane-1,3′-pyrrolo[3,2-c]pyridin]-6′-yl)acetamide], the IC50 at JH2 domain of human Tyk2 was at most 10 nM; in test [1] it was 10 to 100 nM.
